From patent publication US8629283B2, “Compounds that modulate negative-sense, single-stranded RNA virus replication and uses thereof” (Icahn School of Medicine at Mount Sinai, priority 2008, dated 2014)
pIC50: −log10 of the molar value. Read-outs that look alike come from different tables or passages of the source. Marks after values point to notes of the source that are not given here.

Columns and labels:
[1] = tested on: influenza B/Yamagata/88 virus; format: cell-based
[2] = tested on: influenza A/Moscow/10/99 virus; format: cell-based
[3] = tested on: influenza A/Wyoming/03/2003 virus; format: cell-based
[4] = tested on: influenza A/WSN/33 virus
[5] = tested on: H5N1/PR8 virus; format: cell-based, influenza A virus
[6] = in vitro; conditions: human
[7] = tested on: host cell replication machinery
[8] = in vitro; conditions: mouse
[9] = molecular target: influenza viral RNA polymerase (Influenza A virus, UniProt P03427+P03430+P15659); format: cell-based
[10] = tested on: influenza A virus (FluA); test: microbe, parasite or virus in culture
[11] = tested on: influenza A virus (FluA); test: in vitro; conditions: human
[12] = tested on: influenza virus; format: cell-based
[13] = tested on: influenza A virus (FluA)
[14] = tested on: A549 cells; conditions: human
[15] = in vitro; conditions: dog
[16] = in vitro; conditions: human; remark: listed apart in the source
[17] = tested on: Newcastle disease virus (NDV/B1); format: cell-based
[18] = tested on: influenza virus WSN; format: cell-based, influenza A virus
[19] = tested on: vesicular stomatitis virus (VSV); format: cell-based
[20] = tested on: retrovirus MLV; format: cell-based
[21] = tested on: VSV; format: cell-based, vesicular stomatitis virus
[22] = tested on: influenza A/WSN/33 virus; format: cell-based
[23] = tested on: caspase-3; conditions: human, 6 h

Compound | increase of viral titer compared to untreated control [4] | inhibition of FluB (A549) [1] | CC50 [8] | pIC50 ([10]; A549, read-out: IC50 (A549)) | pIC50 ([10]; MDCK, read-out: IC50 (MDCK)) | pIC50 ([10]; MEF, read-out: IC50 (MEF)) | pIC50 ([10]; read-out: IC50 (HTBE)) | pIC50 ([10]; read-out: IC50 in HTBE cells) | selectivity ratio [11] | effect on entry of influenza virus [12] | Inhibition of FluA (Table 5) [13] | inhibition of FluA (A549) [13] | inhibition of FluA (HTBE) [13] | inhibition of FluA (MDCK) [13] | inhibition of FluA (MEF) [13] | SI (MDCK) [13] | CC10 (A549), concentration of 10% cytotoxicity [14] | CC50 [15] | inhibition of influenza virus replication [13] | other results
NC(=NC(=O)c1nc(Cl)c(N)nc1N)NCc1ccc(Cl)cc1Cl [2′,4′-dichlorobenzamil] | 10^3 fold |  |  |  |  |  |  |  |  |  |  |  |  |  |  |  |  |  |  | increase of viral titer compared to untreated cells [1]: 4 fold; maximum viral titer compared to untreated cells [2]: significant increase; maximum viral titer compared to untreated cells [3]: significant increase; increase in viral titers in Vero cells [4]: 11 fold; influenza virus growth versus untreated control [4]: boost influenza virus replication; increase of viral titer compared to untreated cells [5]: ~20 fold
Cc1[nH]c2ccc(-c3nnc(SCC(=O)N4CCCC4)o3)cc2c1C [A3, 2-(5-(2,3-dimethyl-1H-indol-5-yl)-1,3,4-oxadiazol-2-ylthio)-1-(pyrrolidin-1-yl)ethanone] |  | 94% (A549)* | > 100 µM | 6.27 | 6.09 | 5.44 | 7.38 | 7.38 | 496 | did not inhibit viral entry | 99.2%* | 97% | 99.99% | ~99.6% | ~91.2% | >122 | 38 µM | > 100 µM |  | CC50 at 24 h [6]: 268 µM; inhibition of growth of influenza B virus [1]: about 1.5 logs; effect on overall host cell replication machinery (renilla luciferase control plasmid) [7]: not affected; inhibition of viral RNA polymerase activity [9]: up to 99%; CC50 [16]: 108 µM
CN(c1nc(-c2ccc(Br)cc2)cs1)C1CCS(=O)(=O)C1 (stereo not drawn) [A35, 4-(4-bromophenyl)-N-methyl-N-(tetrahydro-1,1-dioxido-3-thienyl)-2-thiazolamine] |  | 63% (A549)* | 96.6 µM | 5.68 | 5.41 | 5.58 | 5.70 |  | 53 | did not affect the entry step | 99.99%* | 99.988% | 99.98% | ~75% | ~99.6% | 7 | 11.2 µM | 26.8 µM | up to 4 logs | inhibition of influenza B virus [1]: less significant inhibition; inhibition of NDV [17]: less significant inhibition; pIC50 ([10]; HEK-293T, read-out: IC50 (293T)): 5.21; pIC50 ([10]; Huh7.5, read-out: IC50 (HUH7.5)): 5.40; pIC50 ([10]; read-out: IC50 (Detroit)): 5.68; inhibition of viral replication [18]: 4 logs; inhibition of FluA (293T) [13]: ~50%; inhibition of FluA (Detroit) [13]: ~95.6%; inhibition of FluA (HUH7.5) [13]: ~98.4%; inhibition of VSV [19]: less significant inhibition
COc1cc2c(O)c3c(c(-c4ccc5c(c4)OCO5)c2cc1OC)C(=O)OC3 [C2, 9-(benzo[d][1,3]dioxol-5-yl)-4-hydroxy-6,7-dimethoxynaphtho[2,3-c]furan-1(3H)-one] |  | 63% (A549)* | 4.85 µM | 5.80 | 6.82 | 6.47 | 7.23 | 7.23 | 82 | inhibited |  | 94.7% | 99.96% | ~87.5% | ~96% | 4 |  | 0.67 µM | up to 3.5 logs | effect on entry of MLV [20]: unaffected; effect on entry of VSV [21]: inhibited; effect on course of infection [18]: did not affect the course of infection
NC(=Nc1ccccc1)NC(=O)c1nc(Cl)c(N)nc1N [phenamil] | 16 fold |  |  |  |  |  |  |  |  |  |  |  |  |  |  |  |  |  |  | HTS result (luciferase signal of influenza mini-genome reporter) [22]: increased luciferase signals; induction of apoptosis (caspase-3 activity, fluorescence vs untreated cells) [23]: 1.3 fold
